In US5284834A, “Adenosine functionalized congeners as cardiovascular treating agents for animals and methods for using same” (priority 1992, dated 1994):
Entries after “also recorded” stand apart in the source; their conditions may differ.

How the values were obtained:
[1] = biological target: T1, Coronary A2-Adenosine Receptor (Canis lupus familiaris, UniProt P11617); test: Coronary vasoactivity in the anesthetized, open-chest dog (intracoronary infusion; MPR from EC50); format: in vivo
T1 construct: The assay of coronary vasoactivity in the anesthetized, open-chest dog; from tissue; host or cells: coronary vessels in situ, anesthetized open-chest dog
Description: (§1) In the present invention there is compared the A1 - and A2 -potencies of a series of long-chain derivatives of adenosine suitable for attachment to "carriers," such as peptides or proteins, and for immobilization to polymeric matrices for affinity chromatography of adenosine receptors. The method employed is a comparison of increasing coronary blood flow via activation of an A2 -adenosine receptor versus an A1 -binding assay in rat brain.
(§2) The potencies at A2 -receptors (Table 1) are expressed as a molar potency ratio of the EC50 value of adenosine divided by that of the adenosine analogue. A common reference compound on which to base molar potency ratios was needed to facilitate comparison of activities at A1 and A2 receptors. Adenosine itself cannot be used as a reference in the A1 binding assay since treatment of the membranes with adenosine deaminase is essential. […] Thus, MeAdo was used as a suitable reference compound.
The assay of coronary vasoactivity in the anesthetized, open-chest dog, is described by Kusachi et al, J. Med. Chem., in press, and Olsson, et al, J. Circ. […] The assay estimates an EC-50, the concentration of analogue which produces a half maximum change in coronary conductance (reciprocal resistance). To reduce between-animal variability activity is expressed as a molar potency ratio (MPR) the value of the EC-50 of adenosine divided by that of the analogue. Owing to the low water solubility of some of the analogues, solutions for intracoronary infusion were prepared by diluting stock solutions in dimethyl sulfoxide. In such instances, solutions of adenosine used to establish a standard of potency also contained dimethyl sulfoxide. […]

[2] = biological target: T2, Brain A1-adenosine receptor (Rattus norvegicus, UniProt P25099); test: A1-binding assay: antagonism of binding of 1nM [3H]N6-cyclohexyladenosine to rat cerebral cortical membranes; details: molar potency ratio derived from Ki values; rat cerebral cortical membranes
T2 construct: -cyclohexyladenosine to rat cerebral cortical membranes; from tissue; host or cells: rat cerebral cortical membranes
T2 sequence (P25099 1-326): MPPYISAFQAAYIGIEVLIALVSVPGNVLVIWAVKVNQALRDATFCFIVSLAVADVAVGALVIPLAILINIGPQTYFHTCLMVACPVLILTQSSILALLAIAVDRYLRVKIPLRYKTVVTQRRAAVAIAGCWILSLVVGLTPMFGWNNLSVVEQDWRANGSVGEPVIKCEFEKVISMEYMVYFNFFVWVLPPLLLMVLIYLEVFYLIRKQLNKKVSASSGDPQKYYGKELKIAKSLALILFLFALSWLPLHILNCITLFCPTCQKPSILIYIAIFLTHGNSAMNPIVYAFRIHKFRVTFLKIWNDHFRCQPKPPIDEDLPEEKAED
Description: as §1
^b Molar potency ratio relative to adenosine, derived from Ki
values for antagonism of binding of 1nM [^3 H]N^6
-cyclohexyladenosine to rat cerebral cortical membranes.
as §2

[3] = biological target: T3, A2-adenosine receptor (adenylate cyclase, human platelet membranes) (Homo sapiens, UniProt P29274); test: Stimulation of adenylate cyclase in human platelet membranes; format: biochemical; details: human platelet membranes; read-out: IC50 (printed lC50), stimulation of adenylate cyclase
T3 construct: stimulation of adenylate cyclase in human platelet membranes; from tissue; host or cells: human platelet membranes

[4] = Water solubility; format: physicochemical

T1 sequence (P11617 whole entry, the tested form may be a part): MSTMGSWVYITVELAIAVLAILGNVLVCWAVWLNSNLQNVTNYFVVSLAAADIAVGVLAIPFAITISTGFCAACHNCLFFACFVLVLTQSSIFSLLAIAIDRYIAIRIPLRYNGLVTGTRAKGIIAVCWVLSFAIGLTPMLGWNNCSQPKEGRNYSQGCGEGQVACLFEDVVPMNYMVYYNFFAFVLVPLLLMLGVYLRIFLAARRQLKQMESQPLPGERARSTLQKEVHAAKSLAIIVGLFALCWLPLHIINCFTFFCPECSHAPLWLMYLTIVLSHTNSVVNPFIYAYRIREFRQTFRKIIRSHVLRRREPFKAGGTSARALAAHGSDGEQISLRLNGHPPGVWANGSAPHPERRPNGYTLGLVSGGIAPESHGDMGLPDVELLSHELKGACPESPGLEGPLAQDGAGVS
T3 sequence (P29274 whole entry): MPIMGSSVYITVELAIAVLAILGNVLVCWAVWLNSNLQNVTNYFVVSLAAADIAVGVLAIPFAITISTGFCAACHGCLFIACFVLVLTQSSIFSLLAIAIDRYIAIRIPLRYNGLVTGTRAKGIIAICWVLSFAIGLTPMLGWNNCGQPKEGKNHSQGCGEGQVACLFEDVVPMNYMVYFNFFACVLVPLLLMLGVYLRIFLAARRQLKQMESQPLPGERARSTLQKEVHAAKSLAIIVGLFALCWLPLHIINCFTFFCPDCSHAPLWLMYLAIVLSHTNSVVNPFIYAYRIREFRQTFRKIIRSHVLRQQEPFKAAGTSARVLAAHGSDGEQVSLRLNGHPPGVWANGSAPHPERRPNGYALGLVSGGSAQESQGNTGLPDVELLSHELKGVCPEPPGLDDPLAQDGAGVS

Onset of Action ([1]; coronary vasodilation, intracoronary infusion): 20 to 30 s
A2 versus A1 receptor selectivity (in words) ([1]; dog coronary A2 versus rat brain A1): highly divergent at A1 and A2 receptors
Duration of Vasodilation ([1]; intracoronary infusion): > 1 h
duration of vasodilation (in words) ([1]; intracoronary infusion): often lasted for an hour or more
A2 Receptor MPR Relative to Ado ([1]; molar potency ratio: EC50 of adenosine divided by that of the analogue, coronary, dog): 10.2 ± 7.3
A2/A1 potency ratio (MPR(A2)/MPR(A1)) ([1]; ratio of MPR (MeAdo) at dog coronary A2 receptor to MPR at rat brain A1 receptor): 61
A1 Receptor MPR Relative to MeAdo [2]: 3.3
water solubility (in words) [4]: practically insoluble in water
Compound: O=C(CCCC[C@@H]1SC[C@@H]2NC(=O)N[C@@H]21)NCCCCCC(=O)NCCNC(=O)Cc1ccc(NC(=O)Cc2ccc(Nc3ncnc4c3ncn4[C@@H]3O[C@H](CO)[C@@H](O)[C@H]3O)cc2)cc1 [Compound 19]
coronary vasoactivity (in words) ([1]; intracoronary infusion, dog): most active analogue; also recorded: three most active analogues
IC50 [3]: 2400 nM
